Data as given in US20250025438A1, “Derivative of aspartic acid and use thereof in treatment of metabolic diseases such as hepatic fibrosis and non-alcoholic hepatitis” (SHENZHEN JINGTAI TECHNOLOGY CO., LTD., priority 2021, published 2025).
Where a name gives a salt, the structure may show the parent alone.

Key:
[1] = tested on: NS3TP1; assay: NS3TP1 expression in liver tissue of CCl4 liver fibrosis mice; type: in vivo, C57BL/6 wild-type mice; details: CCl4-induced mice, different doses by gavage, vs untreated group, FIG. 5
Experimental: Long-term intraperitoneal injection of carbon tetrachloride (CCl4) induced reversible liver fibrosis, which was often used to screen and evaluate anti-hepatic fibrosis drugs. C57BL/6 wild-type mice were randomly divided into control group, carbon tetrachloride group and treatment group. The treatments were as follows:
Mice in the carbon tetrachloride group: The animals were intraperitoneally injected with carbon tetrachloride in a total amount of 0.5 μL/g, diluted with corn oil to 10 μL/g, 3 times/week. […]

[2] = tested on: NAFLD induced by HFD; assay: Mouse NAFLD model induced by HFD, H&E staining; type: in vivo, C57BL/6J male mice; details: HFD diet mice, 10, 50, 150 mg/kg by gavage bid, 8 weeks, vs untreated group, FIG. 9
Experimental: (§1) • (1) C57BL/6J male mice aged 6 to 8 weeks were selected and randomly divided into normal diet group (n=10) and HFD or CHOL group; the weight changes of the mice were recorded during the modeling period, and the modeling was conducted for 8 weeks (CHOL) or 10 weeks (HFD), then the mice in the HFD or CHOL group were randomly divided into groups according to their body weights, plus the negative control group, a total of 5 groups:
(§2) (2) Mice in the negative control group (n=10): The animals were fed with normal diet, and 200 μL of drinking water was administered by gavage, bid.
(§3) Mice in HFD or CHOL group (n=10): The animals were fed with HFD or CHOL diet, and 200 μL of normal saline was administered by gavage at the same time, bid. (Note: HFD (60% high fat) feed (Whitby Technology Development (Beijing) Co., Ltd.) (D12492), CHOL (40% high fat +1.25% cholesterol) feed (Whitby Technology Development (Beijing) Co., Ltd.) (D12108C)) (3) Mice in Compound 6-low dose group (n=10): The animals were fed with HFD or CHOL diet, and administrated simultaneously with Compound 6 at a dose of 10 mg/kg by gavage, bid.
(§4) (4) Mice in Compound 6-middle dose group (n=10): The animals were fed with HFD or CHOL diet, and administrated simultaneously with Compound 6 at a dose of 50 mg/kg by gavage, bid. […]

[3] = tested on: NAFLD induced by CHOL; assay: Mouse NAFLD model induced by CHOL, H&E staining; type: in vivo, C57BL/6J male mice; details: CHOL diet mice, 10, 50, 150 mg/kg by gavage bid, 8 weeks, vs untreated group, FIG. 10
Experimental: as §1, §2, §3, §4

[4] = tested on: FN; assay: Semi-activated LX2 cells, Western blot: FN protein; type: cell-based; details: 50-400 μM, 48 hours, FIG. 3, vs 50 μM aspartic acid

| SMILES | expression of NS3TP1 in the liver tissue of mice [1] | lipid droplet aggregation in the liver tissue of mice (H&E) [2] | lipid droplet aggregation in the liver tissue of mice (H&E) [3] | inhibitory effect on FN protein expression as compared to ASP [4] |
| --- | --- | --- | --- | --- |
| COC(=O)C[C@H](N)C(=O)O [Compound 6] | gradually increased in a dose-dependent manner | reduced in a dose-dependent manner | reduced in a dose-dependent manner | – |
| COC(=O)C[C@H](N)C(=O)OCOC(=O)[C@@H](N)CC(=O)OC [Compound 54, 4-dimethyl O′1,01-methylene (2S,2'S)-bis (2-aminosuccinate) hydrochloride] | – | – | – | stronger inhibitory effects |
